Experiments:
[1] = system: eIF-2-alpha kinase GCN2 (Homo sapiens), Q9P2K8 [S808G]; test: Inhibition of wild-type human partial length GCN2 kinase domain 2 (R585 to T1018 residues) S808G mutant expressed in bacterial expression system at 1 uM by Kinomescan method relative to control
[2] = target: Serine/threonine-protein kinase 24 (Homo sapiens) (UniProt Q9Y6E0); test: Inhibition of wild-type human partial length MST3 (A30 to S311 residues) expressed in bacterial expression system at 1 uM by Kinomescan method relative to control
[3] = target: Serine/threonine-protein kinase Sgk3 (Homo sapiens) (UniProt Q96BR1); test: Inhibition of wild-type human partial length SGK3 (M119 to L496 residues) expressed in mammalian expression system at 1 uM by Kinomescan method relative to control
[4] = target: Ephrin type-A receptor 5 (Homo sapiens) (UniProt P54756); test: Inhibition of wild-type human partial length EPHA5 (T627 to V930 residues) expressed in bacterial expression system at 1 uM by Kinomescan method relative to control
[5] = target: Calcium/calmodulin-dependent protein kinase type IV (Homo sapiens) (UniProt Q16566); test: Inhibition of wild-type human partial length CAMK4 (A22 to A322 residues) expressed in bacterial expression system at 1 uM by Kinomescan method relative to control
[6] = Plasma clearance in Sprague-Dawley rat at 1 mg/kg, iv relative to hepatic blood flow; format: ADME, organism-based; details: in vivo
[7] = system: Receptor-type tyrosine-protein kinase FLT3 (Homo sapiens), P36888 [D835Y]; test: Inhibition of human partial length FLT3 D835Y mutant (Q580 to Y969 residues) expressed in bacterial expression system at 1 uM by Kinomescan method relative to control
[8] = target: Phosphatidylinositol 4-kinase beta (Homo sapiens) (UniProt Q9UBF8); test: Inhibition of wild-type human full length PIK4CB (M1 to M828 residues) expressed in mammalian expression system at 1 uM by Kinomescan method relative to control
[9] = target: Mast/stem cell growth factor receptor Kit (Homo sapiens) (UniProt P10721); test: Inhibition of wild-type human partial length autoinhibited KIT (Y545 to D952 residues) expressed in mammalian expression system at 1 uM by Kinomescan method relative to control
[10] = target: AP2-associated protein kinase 1 (Homo sapiens) (UniProt Q2M2I8); test: Inhibition of human wild-type AAK1 (G25 to L333 residues) expressed in bacterial expression system at 1 uM by Kinomescan method relative to control
[11] = target: Serine/threonine-protein kinase pim-1 (Homo sapiens) (UniProt P11309); test: Inhibition of wild-type human partial length PIM1 (A15 to K313 residues) expressed in bacterial expression system at 1 uM by Kinomescan method relative to control
[12] = system: Receptor-type tyrosine-protein kinase FLT3 (Homo sapiens), P36888 [UNDEFINED MUTATION]; test: Inhibition of human partial length FLT3 ITD/F691L double mutant expressed in bacterial expression system at 1 uM by Kinomescan method relative to control
[13] = system: Tyrosine-protein kinase ABL1 (Homo sapiens), P00519 [E255K]; test: Inhibition of human phosphorylated ABL1 E255K mutant (S229 to K512 residues) expressed in mammalian expression system at 1 uM by Kinomescan method relative to control
[14] = target: Myosin light chain kinase (Homo sapiens) (UniProt Q32MK0); test: Inhibition of wild-type human partial length MLCK (D488 to K800 residues) expressed in bacterial expression system at 10 uM by Kinomescan method relative to control
[15] = target: 5'-AMP-activated protein kinase catalytic subunit alpha-2 (Homo sapiens) (UniProt P54646); test: Inhibition of wild-type human partial length AMPK alpha2 (M1 to E306 residues) expressed in bacterial expression system at 10 uM by Kinomescan method relative to control
[16] = system: Mast/stem cell growth factor receptor Kit (Homo sapiens), P10721 [V559D]; test: Inhibition of human partial length KIT V559D mutant (Y545 to D952 residues) expressed in bacterial expression system at 10 uM by Kinomescan method relative to control
[17] = target: Bone morphogenetic protein receptor type-1A (Homo sapiens) (UniProt P36894); test: Inhibition of wild-type human partial length BMPR1A (Q214 to I532 residues) expressed in bacterial expression system at 10 uM by Kinomescan method relative to control
[18] = target: Fibroblast growth factor receptor 2 (Homo sapiens) (UniProt P21802); test: Inhibition of wild-type human partial length FGFR2 (D457 to E769 residues) expressed in bacterial expression system at 10 uM by Kinomescan method relative to control
[19] = target: Serine/threonine-protein kinase Nek11 (Homo sapiens) (UniProt Q8NG66); test: Inhibition of wild-type human partial length NEK11 (M1 to E313 residues) expressed in mammalian expression system at 10 uM by Kinomescan method relative to control
[20] = target: Serine/threonine-protein kinase Sgk1 (Homo sapiens) (UniProt O00141); test: Inhibition of wild-type human partial length SGK (I60 to L431 residues) expressed in mammalian expression system at 10 uM by Kinomescan method relative to control
[21] = target: RAC-gamma serine/threonine-protein kinase (Homo sapiens) (UniProt Q9Y243); test: Inhibition of wild-type human partial length AKT3 expressed in bacterial expression system at 10 uM by Kinomescan method relative to control
[22] = target: Inhibitor of nuclear factor kappa-B kinase subunit beta (Homo sapiens) (UniProt O14920); test: Inhibition of wild-type human full length IKK-beta (M1 to S756 residues) expressed in mammalian expression system at 10 uM by Kinomescan method relative to control
[23] = target: Mitogen-activated protein kinase kinase kinase 20 (Homo sapiens) (UniProt Q9NYL2); test: Inhibition of wild-type human partial length ZAK (M1 to L331 residues) expressed in bacterial expression system at 10 uM by Kinomescan method relative to control
[24] = target: MAP kinase-activated protein kinase 5 (Homo sapiens) (UniProt Q8IW41); test: Inhibition of wild-type human partial length MAPKAPK5 (M1 to D322 residues) expressed in mammalian expression system at 10 uM by Kinomescan method relative to control
[25] = target: Ribosomal protein S6 kinase alpha-6 (Homo sapiens) (UniProt Q9UK32); test: Inhibition of wild-type human partial length C-terminal RSK4 kinase domain 2 (I401 to Y711 residues) expressed in bacterial expression system at 10 uM by Kinomescan method relative to control
[26] = target: Cyclin-dependent kinase 19 (Homo sapiens) (UniProt Q9BWU1); test: Inhibition of wild-type human partial length CDK11 (M1 to N360 residues) expressed in bacterial expression system at 10 uM by Kinomescan method relative to control
[27] = target: Serine/threonine-protein kinase 26 (Homo sapiens) (UniProt Q9P289); test: Inhibition of wild-type human full length MST4 (M1 to P416 residues) expressed in mammalian expression system at 10 uM by Kinomescan method relative to control

SMILES: O=C(Nc1cccc([C@@H]2CN(c3ncnc4[nH]ccc34)CCN2CCO)c1)Nc1c(F)cccc1N1CCCC1
- inhibition [1]: 95%
- inhibition [2]: 73%
- inhibition [3]: 84%
- inhibition [4]: 92%
- inhibition [5]: 100%
- CL [6]: 11%
- inhibition [7]: 2.2%
- inhibition [8]: 100%
- inhibition [9]: 100%
- inhibition [10]: 75%
- inhibition [11]: 86%
- inhibition [12]: 4.6%
- inhibition [13]: 43%

SMILES: O=C(Nc1cccc([C@H]2CCCN(c3ncnc4[nH]ccc34)C2)c1)Nc1ccccc1N1CCCC1
- inhibition [14]: 100%
- inhibition [15]: 4.7%
- inhibition [16]: 0.15%
- inhibition [17]: 82%
- inhibition [18]: 24%
- inhibition [19]: 69%
- inhibition [20]: 26%
- inhibition [21]: 100%
- inhibition [22]: 25%
- inhibition [23]: 100%
- inhibition [24]: 100%
- inhibition [25]: 50%
- inhibition [26]: 37%
- inhibition [27]: 62%

Reference: ChEMBL document CHEMBL4387741, “Optimization of novel reversible Bruton's tyrosine kinase inhibitors identified using Tethering-fragment-based screens” (Bioorg Med Chem, 2019)
